Test results as given in US7579336B2, “Pharmaceutical composition comprising temozolomide ester” (Tian Jin Tasly Group Co., Ltd., priority 2004, dated 2009).
≈ marks a conversion by molar mass, not a printed value. Read-outs that look alike come from different tables or passages of the source. Marks after values point to notes of the source that are not given here.

What was measured:
[1] = system: HCT-8, A549, MCF-7, Bel7402, BGC-823 and MV3 cancer cell strains; test: MTT reduction assay, summary over the selected cell strains; type: cell-based; conditions: Homo sapiens; summary of Table 1 over all selected cell strains; read-out: IC50 ranges for the selected cell strains
Method: (§1) The experiment was carried out for methyl TMZ-8-carboxylate, butyl TMZ-8-carboxylate, n-hexyl TMZ-8-carboxylate, and TMZ acid which had been known as an active compound against carcinoma, and used fluorouracil injection (10 ml:0.25 g, purchased from Xudong Pharmaceutical Co. Ltd, the batch number was 000612) as the drug for the positive control. Cancer cell strains used in experiments included HCT-8(human colon carcinoma cells), A549 (human lung carcinoma cells), MCF-7(human breast carcinoma cells), Bel7402 (human liver carcinoma cells), BGC-823(human gastric carcinoma cells) and MV3 (human melanoma cells).
(§2) Tetrazolium salt [3-(4,5-dimethylthiazol-2-yl)-2,5-diphenyl-tetrazolium bromide, MTT] reduction assay was used. All the well-grown carcinoma cells were collected, prepared intol 1×10^4/ml cell suspension with the RPMI 1640 culture solution containing 10% calf serum, and inoculated in 96-well culture plate, with 100 uL per well (containing 1000 cancer cells). After 24 hours of culture in 5% CO2 thermos incubator at temperature of 37° C. the drugs were added. Blank control group was established and the drug for the positive control was Fluorouracil. The tested drugs were divided into five groups at different concentrations, each concentration was tested for three times parallelly, and placed in 5% CO2 thermos incubator at temperature of 37° C. to culture for four days. The culture solution was discarded and 100 uL of MTT solution (0.4 mg/ml, prepared with RPMI 1640) was added per well to continue to culture for four hours at temperature of 37° C. The supernate was discarded and 150 uL of DMSO was added to dissolve Fomazan granules. After slight agitation, the OD value was measured with BIORAD 550 enzyme labeling instrument at the measuring wavelength of 540 nm and the reference wavelength of 450 nm.
(§3) Data of cell inhibiting rate was then plotted vs. the concentration of drugs to obtain the dose-reaction curve, by which 50% inhibitory concentration IC50 was calculated (see Table 1 and Table 2).

[2] = system: Bel7402 (human liver carcinoma cells); test: MTT reduction assay, killing tumor cells; type: cell-based; conditions: Bel-7402 cells, four days culture with drug
Method: as §1
(§4) TMZ acid is white powder; Methyl TMZ-8-carboxylate, butyl TMZ-8-carboxylate and n-hexyl TMZ-8-carboxylate, white scaly crystals, manufactured by the method described in Example 2; Fluorouracil injection (10 ml: 0.25 g): as drug for the positive control, manufactured by Xudong Pharmaceutical Co. Ltd, the batch number 000612; RPMI: produced by GIBCO; Calf serum: manufactured by Sijiqing bio-engineer material Co. Ltd, Hangzhou; and MTT: produced by Bebco.
(§5) All cancer cell strains of HCT-8, A549, MCF-7, Bel-7402, BGC-823, MV3 and B16 was fostered and transferred of culture by Institute of Materia Medica, Chinese Academy of Medical Sciences and Peking Union Medical College.
as §2, §3

[3] = system: MV3 (human melanoma cells); test: MTT reduction assay, killing tumor cells; type: cell-based; conditions: four days culture with drug
Method: as §1, §4, §5, §2, §3

[4] = system: MCF-7(human breast carcinoma cells); test: MTT reduction assay, killing tumor cells; type: cell-based; conditions: MCF-7 cells, four days culture with drug
Method: as §1, §4, §5, §2, §3

[5] = system: BGC-823(human gastric carcinoma cells); test: MTT reduction assay, killing tumor cells; type: cell-based; conditions: BGC-823 cells, four days culture with drug
Method: as §1, §4, §5, §2, §3

[6] = system: HCT-8(human colon carcinoma cells); test: MTT reduction assay, killing tumor cells; type: cell-based; conditions: HCT-8 cells, four days culture with drug
Method: as §1, §4, §5, §2, §3

[7] = system: A549 (human lung carcinoma cells); test: MTT reduction assay, killing tumor cells; type: cell-based; conditions: four days culture with drug
Method: as §1, §4, §5, §2, §3

[8] = studies published in WO0057867; cited from earlier work
[9] = Stability of TMZ-8-carboxylate derivatives in alcohols (HPLC); type: physicochemical; conditions: room temperature, sampled up to 32 months
Method: n-hexyl TMZ-8-carboxylate was weighed accurately and prepared into 1% of solution by diluting respectively with methanol, ethanol, isopropanol and tert-butyl alcohol. Three sample solutions (20 ml) were taken out in each of above solutions and placed into 50 ml volumetric brown glass bottle, sealed and allowed to stand at room temperature. At time of 1, 4, 8, 12, 16, 20, 24, 28, 32 months after beginning, the solutions were sampled and determined the concentration of n-hexyl TMZ-8-carboxylate by HPLC, to calculate the average value of three parallel solutions and plotted.

[10] = Stability of TMZ-8-carboxylate in media of different pH (HPLC); type: physicochemical; conditions: 1% aqueous solution, sampled up to 32 months
Method: The sodium hydroxide and citric acid were accurately weighed and respectively diluted with water to form the solution with the pH value of 7.5, 7.0, 6.5, 6.0 and 5.5. n-Hexyl TMZ-8-carboxylate was accurately weighed, and dissolved into said aqueous solutions with different pH values to form a series of 1% solutions of n-hexyl TMZ-8-carboxylate. Three sample solutions (20 ml) were taken out in each of above solutions and placed into 50 ml volumetric brown glass bottle, sealed and allowed to stand at room temperature. At 1, 4, 8, 12, 16, 20, 24, 28, 32 months after beginning, the solutions were sampled and determined the concentration of n-hexyl TMZ-8-carboxylate by HPLC, to calculate the average of three parallel solutions and plotted.

[11] = system: xenotransplanted human melanoma MV3; test: Topical administration, growth of xenotransplanted human melanoma in MV3 nude mouse; type: in vivo, nude mouse of BALB/c-nu
Method: Hexyl TMZ-8-carboxylate was selected as the representative to investigate the influence of TMZ-8-carboxylate derivatives on the growth of xenotransplanted human melanoma in MV3 nude mouse.
Hexyl TMZ-8-carboxylate was dissolved in DMSO to obtain 50 mg/ml solution. Human melanoma was xenotransplanted to nude mouse of BALB/c-nu to allow it to grow. Until the tumor expanded to the volume of 100˜300 mm^3, all animals were divided into two groups in accordance with the size of tumor, eight mice per group.
Of these two groups, one was the treatment group in therapeutical treatment by spreading the solution of hexyl TMZ-8-carboxylate; another was the control group where the tumor grows naturally.
In the treatment group, the drug was administered by spreading drug at the position of tumor and surrounding area (2 cm×2 cm) twice a day (once on Saturday and Sunday). Every time, when the solution was dried, administration was repeated for 1 to 2 times. The daily average dose of hexyl TMZ-8-carboxylate administered for a mouse totally was about 20 mg.
The volume of tumor in mouse was measured twice a week, so as to observe and record their growth dynamically. Until the tumor of the control group grew up to a certain volume, all the mice were killed the tumors were stripped off and weighed, growth inhibition rate was calculated. Tumor proliferation (T/C(%)) was calculated using relative volume of tumor in two groups.
Tumor volume (TV) was calculated by the equation as follows: Length×width^2÷2
The relative tumor volume is calculated by the equation as follows: Vt/Vo
Wherein the Vo is the TV measured at the time when the animals were raised in separate cages, and […] is the TV measured each time after.
The t-test was used to compare the statistical difference between two groups in many indexes such as tumor weight, TV and RTV. The relative tumor proliferation rate (T/C(%))was used as the index of bioactivity for anti tumor, which was calculated as follows: […]
The effect was evaluated by statistical analysis. The effect was regarded as invalid when T/C (%) is more than 60, and as effective when T/C (%) is equal to or less than 60 and p<0.05.

[12] = Homo sapiens, 96 h, read-out: IC50
[13] = Homo sapiens, MV-3, 96 h, read-out: IC50
[14] = Homo sapiens, MCF7, 96 h, read-out: IC50
[15] = 20 mg/day/mouse spread on tumor, beginning of test, X ± SD

For `COC(=O)c1ncn2c(=O)n(C)nnc12` [methyl TMZ-8-carboxylate, Methyl 3,4-dihydro-3-methyl-4-oxoimidazo[5,1-d]-1,2,3,5-tetrazine-8-carboxylate], the IC50 [1] was 10 to 30 µg/mL (≈ 47.8 to 143 µM), the IC50 [2, 12] was 25.3 µg/mL (≈ 121 µM) and the IC50 [3, 13] was 8.83 µg/mL (≈ 42.2 µM). For the same molecule, the IC50 [4, 14] was 17.7 µg/mL (≈ 84.5 µM), the IC50 [5, 12] was over 19.5 µg/mL and the IC50 [6, 12] was 28.4 µg/mL (≈ 136 µM). For the same molecule, the IC50 [7, 12] was 27 µg/mL (≈ 129 µM).
Molecule `Cn1nnc2c(C(=O)O)ncn2c1=O` [TMZ acid, reference compound] has an IC50 [2] of 16.957 µg/mL (≈ 86.9 µM), an IC50 [3] of 14.625 µg/mL (≈ 74.9 µM) and an IC50 [4] of 14.911 µg/mL (≈ 76.4 µM). For the same molecule, the IC50 [5] was over 19.5 µg/mL, the IC50 [6] was 18.525 µg/mL (≈ 94.9 µM) and the IC50 [7] was over 19.5 µg/mL.
With `O=c1[nH]cc(F)c(=O)[nH]1` [Fluorouracil, reference compound] the IC50 [3, 13] was 0.427 µg/mL (≈ 3.28 µM).
For `Cn1nnc2c(C(N)=O)ncn2c1=O` [TMZ, Temozolomide], the “Permeation of artificial skin (silicon membrane), rat skin and human skin” value [8] is given as “inability to permeate”.
With `CCCCCCOC(=O)c1ncn2c(=O)n(C)nnc12` [n-hexyl TMZ-8-carboxylate, n-hexyl 3,4-dihydro-3-methyl-4-oxoimidazo[5,1-d]-1,2,3,5-tetrazine-8-carboxylate] the Stability in ethanol ([9]; 1% solution in ethanol) was “rapidly decomposes”, the Stability in isopropanol ([9]; 1% solution in isopropanol) was “keeps stable” and the Stability in methanol ([9]; 1% solution in methanol) was “rapidly decomposes”. For the same molecule, the “Stability in tert-butyl alcohol” value ([9]; 1% solution in tert-butyl alcohol) was “keeps stable”, the “Stability in acidic (pH<7.0) medium” value ([10]; pH 6.5, 6.0 and 5.5, room temperature) was “keep relatively stable” and the “Stability in neutral (pH7.0) medium” value ([10]; pH7.0, room temperature) was “rapidly decomposes”. For the same molecule, the “Stability in weakly alkaline (pH7.5) medium” value ([10]; pH7.5, room temperature) was “rapidly decomposes”, the “Effect on the growth of carcinomas in the mice” value ([11]; 20 mg daily externally administered per mouse, human melanoma MV3) was “significant inhibiting effects” and the “Body weight(g) Beginning test” value [11, 15] was 24.0 ± 1.48 g. The “Tumor volume (mm^3) Beginning test” value [11, 15] was 115 ± 36 mm^3, the “Body weight(g) End test” value ([11]; 20 mg/day/mouse spread on tumor, end of test, X ± SD) was 25.6 ± 3.64 g and the “Tumor volume (mm^3) End test” value ([11]; 20 mg/day/mouse spread on tumor, end of test, X ± SD, P < 0.05 vs control) was 635 ± 545.1* mm^3. The “Weight of tumor” value ([11]; 20 mg/day/mouse topical, end of test, X ± SD) was 0.45 ± 0.335 g, the “Inhibiting rate (%)” value ([11]; growth inhibition rate from tumor weight, 20 mg/day/mouse topical) was 83.2% and the “T/C(%)” value ([11]; relative tumor proliferation rate, 20 mg/day/mouse topical, effective if <= 60 and p<0.05) was 33.7%. It also gave an RTV ([11]; relative tumor volume Vt/Vo, 20 mg/day/mouse topical) of 3.25 ± 1.85, an IC50 [1] of 10 to 30 µg/mL (≈ 35.8 to 107 µM) and an IC50 [3, 13] of 8.84 µg/mL (≈ 31.6 µM). For the same molecule, the IC50 [4, 14] was 20 µg/mL (≈ 71.6 µM) and the IC50 [5, 12] was over 19.5 µg/mL.
Work on `CCCCOC(=O)c1ncn2c(=O)n(C)nnc12` [butyl TMZ-8-carboxylate, Butyl 3,4-dihydro-3-methyl-4-oxoimidazo[5,1-d]-1,2,3,5-tetrazine-8-carboxylate] yielded an IC50 [1] of 10 to 30 µg/mL (≈ 39.8 to 119 µM), an IC50 [2, 12] of 24.4 µg/mL (≈ 97 µM) and an IC50 [3, 13] of 7.57 µg/mL (≈ 30.1 µM). For the same molecule, the IC50 [4, 14] was 16.6 µg/mL (≈ 65.9 µM), the IC50 [5, 12] was over 19.5 µg/mL and the IC50 [6, 12] was 27.4 µg/mL (≈ 109 µM). The IC50 [7, 12] was 25.3 µg/mL (≈ 101 µM).
